Results on 18 compounds are retold here after BindingDB's records for doi:10.1021/jm990281p (Parke-Davis Pharmaceutical Research, 2000).

Each structure is given as a SMILES string.

Experiment [1] deals with T1, Dimer of Gag-Pol polyprotein [489-587] (Human immunodeficiency virus 1, UniProt P12497).
T1 construct: 489-587
Nature of the experiment: Protease Inhibition Assay. The protocol: (§1) Sensitivity of HIV-1 protease activity to protease inhibitors was determined by a peptide substrate cleavage assay. Protease products were analyzed on a reverse-phase high-pressure liquid chromatograph.

The target in experiment [2] is T2, Gag-Pol polyprotein [489-587] (Human immunodeficiency virus 1, UniProt P04585).
T2 construct: 489-587
In words: Protease Inhibition Assay. The protocol: as §1

The target in experiment [3] is T2, Gag-Pol polyprotein [489-587].

For the compound `Cc1cc(SC2C(=O)CC(CCc3ccc(O)cc3)(C(C)C)OC2=O)c(C(C)(C)C)cc1N` (stereo not drawn), the IC50 in experiment [1] (pH 6.2, 37 °C) was determined as 2.7 nM; in experiment [2] it was 2.7 nM. For the same compound, the inhibition constant Ki amounted to 0.67 nM in experiment [1] (pH 6.2, 37 °C) and 0.67 nM in experiment [3].
As to `Cc1cc(SC2C(=O)CC(CCc3ccc(O)cc3)(C(C)C)OC2=O)c(C(C)(C)C)cc1NS(=O)(=O)c1cccc(C#N)c1` (stereo not drawn), the Ki in experiment [1] (pH 6.2, 37 °C) turned out to be 0.21 nM; in experiment [3], 0.21 nM.
On to `Cc1cc(SC2C(=O)CC(CCc3ccccc3)(C(C)C)OC2=O)c(C(C)(C)C)cc1NS(C)(=O)=O` (stereo not drawn), for which the inhibition constant (Ki) in experiment [1] (pH 6.2, 37 °C) turned out to be 0.83 nM; in experiment [3] it was 0.83 nM.
For the compound `Cc1cc(SC2C(=O)CC(CCc3ccccc3)(C(C)C)OC2=O)c(C(C)(C)C)cc1O` (stereo not drawn), in experiment [3], the inhibition constant Ki was 1.1 nM.
`Cc1cc(SC2C(=O)CC(CCc3ccccc3)(C(C)C)OC2=O)c(C(C)(C)C)cc1OS(=O)(=O)c1ccc(C#N)cc1` (stereo not drawn): the Ki in experiment [1] and in experiment [3] was 0.7 nM throughout.
Take `Cc1cc(SC2C(=O)C[C@@](CCc3ccc(O)cc3)(C(C)C)OC2=O)c(C(C)(C)C)cc1OS(C)(=O)=O` (stereo partly drawn): the inhibitory constant (Ki) in experiment [1] and in experiment [3] was 0.03 nM each time. Besides, the half-inhibitory concentration (IC50) in experiment [2] is 2.2 nM.
Turning to `Cc1cc(SC2C(=O)C[C@@](CCc3ccc(O)cc3)(C(C)C)OC2=O)c(C(C)(C)C)cc1N` (stereo partly drawn) [(6S)-3-[(4-amino-2-tert-butyl-5-methylphenyl)sulfanyl]-4-hydroxy-6-[2-(4-hydroxyphenyl)ethyl]-6-(propan-2-yl)-5,6-dihydro-2H-pyran-2-one], the inhibition constant (Ki) in experiment [1] was 0.07 nM; in experiment [3] it was 13 nM.
Consider `Cc1cc(SC2C(=O)CC(CCc3ccccc3)(C(C)C)OC2=O)c(C(C)(C)C)cc1NS(=O)(=O)c1cccc(C#N)c1` (stereo not drawn) [N-(5-tert-butyl-4-{[4-hydroxy-2-oxo-6-(2-phenylethyl)-6-(propan-2-yl)-5,6-dihydro-2H-pyran-3-yl]sulfanyl}-2-methylphenyl)-3-cyanobenzene-1-sulfonamide], for which the inhibitory constant (Ki) in experiment [1] (pH 6.2, 37 °C) worked out at 1.4 nM; in experiment [3] it was 1.4 nM.
For the compound `Cc1cc(SC2C(=O)CC(CCc3ccccc3)(C(C)C)OC2=O)c(C(C)(C)C)cc1NS(=O)(=O)c1ccc(C(F)(F)F)cc1` (stereo not drawn) [N-(5-tert-butyl-4-{[4-hydroxy-2-oxo-6-(2-phenylethyl)-6-(propan-2-yl)-5,6-dihydro-2H-pyran-3-yl]sulfanyl}-2-methylphenyl)-4-(trifluoromethyl)benzene-1-sulfonamide], the Ki in experiment [1] (pH 6.2, 37 °C) came to 27 nM; in experiment [3] it was 27 nM.
In the case of `Cc1cc(SC2C(=O)C[C@@](CCc3ccccc3)(C(C)C)OC2=O)c(C(C)(C)C)cc1NS(=O)(=O)c1ccc(C#N)cc1` (stereo partly drawn) [N-(5-tert-butyl-4-{[(6S)-4-hydroxy-2-oxo-6-(2-phenylethyl)-6-(propan-2-yl)-5,6-dihydro-2H-pyran-3-yl]sulfanyl}-2-methylphenyl)-4-cyanobenzene-1-sulfonamide], the Ki in experiment [1] and in experiment [3] was 0.2 nM each time. The same compound yielded a concentration for half-maximal inhibition (IC50) in experiment [2] of 9.1 nM.
For `Cc1cc(SC2C(=O)C[C@@](CCc3ccccc3)(C(C)C)OC2=O)c(C(C)(C)C)cc1NS(=O)(=O)c1ccc(C(F)(F)F)cn1` (stereo partly drawn) [N-(5-tert-butyl-4-{[(6S)-4-hydroxy-2-oxo-6-(2-phenylethyl)-6-(propan-2-yl)-5,6-dihydro-2H-pyran-3-yl]sulfanyl}-2-methylphenyl)-5-(trifluoromethyl)pyridine-2-sulfonamide], the Ki in experiment [1] was 0.31 nM; in experiment [3], 6.4 nM.
Turning to `Cc1cc(SC2C(=O)C[C@@](CCc3ccc(O)cc3)(C(C)C)OC2=O)c(C(C)(C)C)cc1NS(=O)(=O)c1ccc(C(F)(F)F)cn1` (stereo partly drawn) [N-(5-tert-butyl-4-{[(6S)-4-hydroxy-6-[2-(4-hydroxyphenyl)ethyl]-2-oxo-6-(propan-2-yl)-5,6-dihydro-2H-pyran-3-yl]sulfanyl}-2-methylphenyl)-5-(trifluoromethyl)pyridine-2-sulfonamide], the inhibition constant (Ki) in experiment [1] and in experiment [3] was 0.39 nM in each case.
Take `Cc1cc(SC2C(=O)CC(CCc3ccc(O)cc3)(C(C)C)OC2=O)c(C(C)(C)C)cc1NS(=O)(=O)c1ccc(C#N)cc1` (stereo not drawn) [N-[5-tert-butyl-4-({4-hydroxy-6-[2-(4-hydroxyphenyl)ethyl]-2-oxo-6-(propan-2-yl)-5,6-dihydro-2H-pyran-3-yl}sulfanyl)-2-methylphenyl]-4-cyanobenzene-1-sulfonamide]: the IC50 in experiment [1] (pH 6.2, 37 °C) came out at 2.2 nM; in experiment [2] it was 2.2 nM. Further, the inhibition constant Ki in experiment [1] (pH 6.2, 37 °C) amounted to 0.41 nM; in experiment [3], 0.41 nM.
In the case of `Cc1cc(SC2C(=O)CC(CCc3ccc(O)cc3)(C(C)C)OC2=O)c(C(C)(C)C)cc1NS(=O)(=O)c1ccccc1` (stereo not drawn) [N-[5-tert-butyl-4-({4-hydroxy-6-[2-(4-hydroxyphenyl)ethyl]-2-oxo-6-(propan-2-yl)-5,6-dihydro-2H-pyran-3-yl}sulfanyl)-2-methylphenyl]benzenesulfonamide], the IC50 is 1.8 nM in experiment [1] (pH 6.2, 37 °C) and 1.8 nM in experiment [2]. The Ki in experiment [1] (pH 6.2, 37 °C) is 0.53 nM; in experiment [3] it was 0.53 nM.
Regarding `Cc1cc(SC2C(=O)CC(C)(CCc3ccc(O)cc3)OC2=O)c(C(C)(C)C)cc1NS(=O)(=O)c1ccc(F)cc1` (stereo not drawn) [N-[5-tert-butyl-4-({4-hydroxy-6-[2-(4-hydroxyphenyl)ethyl]-6-methyl-2-oxo-5,6-dihydro-2H-pyran-3-yl}sulfanyl)-2-methylphenyl]-4-fluorobenzene-1-sulfonamide], the IC50 came out at 3.7 nM in experiment [1] (pH 6.2, 37 °C) and 3.7 nM in experiment [2].
In the case of `Cc1cc(SC2C(=O)CC(C)(CCc3ccc(O)cc3)OC2=O)c(C(C)(C)C)cc1NS(=O)(=O)c1ccccc1` (stereo not drawn) [N-[5-tert-butyl-4-({4-hydroxy-6-[2-(4-hydroxyphenyl)ethyl]-6-methyl-2-oxo-5,6-dihydro-2H-pyran-3-yl}sulfanyl)-2-methylphenyl]benzenesulfonamide], the IC50 came out at 1.5 nM in experiment [1] (pH 6.2, 37 °C) and 1.5 nM in experiment [2].
As for `Cc1cc(SC2C(=O)CC(CCc3ccc(O)cc3)(C3CCCC3)OC2=O)c(C(C)(C)C)cc1NS(=O)(=O)c1ccccc1` (stereo not drawn) [N-[5-tert-butyl-4-({6-cyclopentyl-4-hydroxy-6-[2-(4-hydroxyphenyl)ethyl]-2-oxo-5,6-dihydro-2H-pyran-3-yl}sulfanyl)-2-methylphenyl]benzenesulfonamide], the IC50 is 8.6 nM in experiment [1] (pH 6.2, 37 °C) and 8.6 nM in experiment [2].
In the case of `Cc1cc(SC2C(=O)CC(CCc3ccc(O)cc3)(C3CC3)OC2=O)c(C(C)(C)C)cc1NS(=O)(=O)c1ccccc1` (stereo not drawn) [N-[5-tert-butyl-4-({6-cyclopropyl-4-hydroxy-6-[2-(4-hydroxyphenyl)ethyl]-2-oxo-5,6-dihydro-2H-pyran-3-yl}sulfanyl)-2-methylphenyl]benzenesulfonamide], the 50% inhibitory concentration (IC50) in experiment [1] (pH 6.2, 37 °C) is 3.6 nM; in experiment [2], 3.6 nM.

Broadly, the IC50 is the concentration that inhibits the measured activity by half. Read a high IC50 as weaker potency. As a reminder, the Ki is a dissociation constant, usually derived from enzyme kinetics or from competition with a known ligand.
